One molecule from patent US12102631B2, “Quinolylnitrones for the treatment and prevention of a cerebral stroke or ischaemia” (ISQUAEMIA BIOTECH, S.L., priority 2018, dated 2024) can be followed below.

The subject of this assay is primary neuronal cultures subjected to OGD. As to the kind of experiment: Lipid peroxidation (MDA) in primary neuronal cultures after OGD. The assay is classed as cell-based, rat. Particulars: 4 h recovery after 4 h OGD; significant at 100 μM. As to the method:
Lipid peroxidation. Lipid peroxidation was evaluated by the detection of end products such as malondialdehyde (MDA) as a result of oxidative attack to polyunsaturated lipids. Lipid peroxidation was determined by the reaction of MDA with thiobarbituric acid (TBA) to form a colorimetric/fluorometric product, proportional to the MDA present. After recovery period for 4 h, cells (1.5×10^6) were lysed and centrifuged according to the supplier instructions (Sigma, MAK085), and then the thiobarbituric acid was added to the supernatant and mixed in a vortex. The samples were incubated at 95° C. for 60 min, cooled to room temperature and then n-butanol and 5M NaCl were added in a reaction mixture 8:3:1 (v/v) sample:n-butanol:NaCl. After mixed in a vortex, the samples were centrifuged, the n-butanol layer was taken and evaporated, the MDA-TBA adducts were dissolve in water and the absorbance was measured at 540 nm.
Exposure of neuronal cultures to 4 h OGD induced significant ROS generation after 2 h recovery in normoxic and normoglycemic conditions (R2 h) (210%, p<0.005 compared with 100% control) (FIG. 5A). […] ROS generation may induce lipid peroxidation and cell membrane damage. […]

The structures appear in SMILES notation.

For `COc1ccc2nc(Cl)c(/C=[N+](\[O-])C(C)(C)C)cc2c1` [Compound 23, (Z)—N-tert-Butyl-1-(2-chloro-6-methoxyquinolin-3-yl)methanimine oxide], the lipid peroxidation entry is on record as “significantly decreased compared to R4 h value”.
